`CCCN(C)CCCCC1CCN(S(=O)(=O)c2ccc(C(F)(F)F)cc2)CC1` [Example 20.1, Methyl-propyl-{4-[1-(4-trifluoromethyl-benzenesulfonyl)-piperidin-4-yl]-butyl}-amine]: the melting point is 73 to 74.8 °C.

What is called melting point is the temperature of the solid-liquid transition.

The values above are taken from patent US6964974B2, “2,3-oxidosqualene-lanosterol cyclase inhibitors” (Hoffmann-La Roche Inc., priority 2000, dated 2005).
